Measurements as given in patent US7037928B2, “Compositions of N-(methylethylaminocarbonyl)-4-(-3-methylphenylamino)-3-pyridylsulfonamide and cyclic oligosaccharides” (PLIVA, farmaceutska industrija, dionicko drustvo, priority 2000, dated 2006).

Assay: Release of torasemide (active substance) in water, USP 24
Format: physicochemical
Conditions: 37° C., 50 rpm, 1000 ml
Procedure: The physical mixture of the modification I of torasemide and β-cyclodextrin prepared according to the Example 1 of the present invention was subjected to testing the release of the active substance in water at the temperature of 37° C.
The inclusion complex of the modification I of torasemide and β-cyclodextrin to the Example 3 of the present invention was subjected to testing the release of the active substance in water at the temperature of 37° C.

Released torasemide (%) (time 0 min): 0%
Released torasemide (%) (time 15 min): 0.7%
Released torasemide (%) (time 30 min): 20.3%
Released torasemide (%) (time 45 min): 38.5%
Released torasemide (%) (time 60 min): 51.8%
Released torasemide (%) (time 90 min): 68.5%
Released torasemide (%) (time 120 min): 78.7%
SMILES: Cc1cccc(Nc2ccncc2S(=O)(=O)NC(=O)NC(C)C)c1 [Modification I of torasemide, N-(1-methylethylaminocarbonyl)-4-(3-methylphenylamino)-3-pyridylsulfonamide]
